Data reported in ChEMBL document CHEMBL2146450, “DNA Sequence Preference and Adduct Orientation of Pyrrolo[2,1-c][1,4]benzodiazepine Antitumor Agents” (ACS Med Chem Lett, 2010).

Legend:
Assay type in all cases: nucleic-acid assay
[1] = tested on: Nucleic Acid; experiment: Binding affinity to 5'-TATA-TGT-TTT-ACA-TATA at 200 uM by HPLC/MS analysis
[2] = tested on: Nucleic Acid; experiment: Binding affinity to 5'-TGA-TATA-TTT-TATA-TCA at 200 uM by HPLC/MS analysis
[3] = tested on: Nucleic Acid; experiment: Binding affinity to 5'-TATA-AGT-TTT-ACT-TATA at 200 uM by HPLC/MS analysis
[4] = tested on: Nucleic Acid; experiment: Binding affinity to 5'-TATA-AGA-TTT-TCT-TATA at 200 uM by HPLC/MS analysis
[5] = tested on: Nucleic Acid; experiment: Binding affinity to 5'-TATA-TGA-TTT-TCA-TATA at 200 uM by HPLC/MS analysis
[6] = tested on: Nucleic Acid; experiment: Binding affinity to 5'-TGT-TATA-TTT-TATA-ACA at 200 uM by HPLC/MS analysis
[7] = tested on: Nucleic Acid; experiment: Binding affinity to 5'-AGA-TATA-TTT-TATA-TCT at 200 uM by HPLC/MS analysis
[8] = tested on: Nucleic Acid; experiment: Binding affinity to 5'-AGT-TATA-TTT-TATA-ACT at 200 uM by HPLC/MS analysis

- K [1]: > 0.506 µM/min
- K [2]: 0.196 µM/min
- K [3]: 0.124 µM/min
- K [4]: 0.091 µM/min
- K [5]: > 0.364 µM/min
- K [6]: > 0.808 µM/min
- K [7]: 0.132 µM/min
- K [8]: 0.096 µM/min
Compound: COC(=O)c1cc(NC(=O)c2cc(NC(=O)CCCOc3cc4c(cc3OC)C(=O)N3CCC[C@H]3C=N4)cn2C)cn1C
